Experimental data from ChEMBL document CHEMBL1201862, “PubChem BioAssay data set” (2004).
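Method: 48-hour compound exposure of cells in 96-well plates, five concentrations, linear interpolation of endpoints. GI50 marks 50% less growth.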 The source made the active and inactive calls. Cut-off read from the data, not from the text of the source: active = GI50 up to about 1.1 µM and inactive = higher.

Key:
Experiment in all cases: inhibition of tumour cell growth, NCI panel, 48 h
PC-3 = test system: PC-3
CAKI-1 = test system: CAKI-1
DU-145 = test system: DU-145
A549 = test system: A549
CCRF-CEM = test system: CCRF-CEM
OVCAR-4 = test system: OVCAR-4
HOP-92 = test system: HOP-92
UO-31 = test system: UO-31
NCI-H23 = test system: NCI-H23
OVCAR-5 = test system: OVCAR-5
OVCAR-3 = test system: OVCAR-3
TK-10 = test system: TK-10
NCI-H460 = test system: NCI-H460
NCI-H522 = test system: NCI-H522
IGROV-1 = test system: IGROV-1
MOLT-4 = test system: MOLT-4
MCF7 = test system: MCF7
HCC 2998 = test system: HCC 2998
SN12C = test system: SN12C
RXF 393 = test system: RXF 393

Measured: GI50

C=CCOc1ccc(C2(O)c3ccccc3C3=NCCCN32)cc1 (stereo not drawn)
inactive: PC-3 33.5 µM | CAKI-1 > 62.8 µM | DU-145 > 100 µM | A549 55.3 µM | CCRF-CEM 38 µM | OVCAR-4 > 71 µM | HOP-92 43.6 µM | UO-31 51.8 µM | NCI-H23 60.1 µM | OVCAR-5 72.4 µM | OVCAR-3 46.3 µM | TK-10 > 100 µM | NCI-H460 > 100 µM | NCI-H522 21.2 µM | IGROV-1 28.6 µM | MOLT-4 33.2 µM | MCF7 43.7 µM | HCC 2998 24.6 µM | SN12C > 73.6 µM

Cc1ccc(-c2n[nH]c(=O)n2N)cc1
inactive: PC-3 > 100 µM | CAKI-1 > 100 µM | DU-145 > 100 µM | A549 > 100 µM | CCRF-CEM > 100 µM | OVCAR-4 > 100 µM | HOP-92 > 100 µM | UO-31 > 100 µM | NCI-H23 > 100 µM | OVCAR-5 > 100 µM | OVCAR-3 > 100 µM | TK-10 > 100 µM | NCI-H460 > 100 µM | NCI-H522 > 100 µM | IGROV-1 > 100 µM | MOLT-4 > 100 µM | MCF7 > 100 µM | HCC 2998 > 100 µM | SN12C > 100 µM

C=C1C(=O)O[C@@H]2/C=C(/C)[C@@H](OC(C)=O)C/C=C(\C)C(O)[C@@H](OC(=O)/C(C)=C\C)C12 (stereo partly drawn)
inactive: PC-3 76.2 µM | CAKI-1 24.2 µM | DU-145 43.7 µM | A549 95.7 µM | CCRF-CEM 9.53 µM | OVCAR-4 41.6 µM | HOP-92 22.1 µM | NCI-H23 41.9 µM | OVCAR-5 58.2 µM | OVCAR-3 35.7 µM | TK-10 68.7 µM | NCI-H460 39 µM | NCI-H522 13.4 µM | IGROV-1 50.7 µM | RXF 393 26.8 µM | MOLT-4 21.1 µM | MCF7 27.6 µM | HCC 2998 24.6 µM | SN12C 21 µM

CC1(C)C2CC1C(/C=N\OCC(=O)O)=CC2=O (stereo not drawn)
inactive: PC-3 > 100 µM | CAKI-1 > 100 µM | DU-145 > 100 µM | A549 > 100 µM | CCRF-CEM > 100 µM | OVCAR-4 > 100 µM | HOP-92 > 100 µM | UO-31 > 100 µM | NCI-H23 > 100 µM | OVCAR-5 > 100 µM | OVCAR-3 > 100 µM | TK-10 > 100 µM | NCI-H460 > 100 µM | IGROV-1 > 100 µM | RXF 393 > 100 µM | MOLT-4 > 100 µM | MCF7 > 100 µM | HCC 2998 > 100 µM | SN12C > 100 µM

CCOP(=O)(OCC)C(C)(C)OC(=O)NC#N
inactive: PC-3 > 100 µM | CAKI-1 > 100 µM | DU-145 > 100 µM | A549 > 100 µM | CCRF-CEM > 100 µM | OVCAR-4 > 100 µM | HOP-92 > 100 µM | UO-31 > 100 µM | NCI-H23 > 100 µM | OVCAR-5 > 100 µM | OVCAR-3 > 100 µM | TK-10 > 100 µM | NCI-H460 > 100 µM | IGROV-1 > 100 µM | RXF 393 > 100 µM | MOLT-4 > 100 µM | MCF7 > 100 µM | HCC 2998 > 100 µM | SN12C > 100 µM

C=C(C)[C@H]1C2=CC(C)=C(O2)[C@@H](O[C@@H]2c3oc(cc3C)[C@H](C(=C)C)[C@H]3C=C(CC[C@H]2C(=C)C)C(=O)O3)[C@H](C(=C)C)CCC2=C[C@H]1OC2=O
inactive: PC-3 > 100 µM | CAKI-1 > 100 µM | DU-145 > 100 µM | A549 > 100 µM | CCRF-CEM > 100 µM | OVCAR-4 > 100 µM | HOP-92 > 100 µM | UO-31 > 100 µM | NCI-H23 > 100 µM | OVCAR-5 > 100 µM | OVCAR-3 > 100 µM | TK-10 > 100 µM | NCI-H460 > 100 µM | NCI-H522 > 100 µM | IGROV-1 > 100 µM | MOLT-4 > 100 µM | MCF7 > 100 µM | HCC 2998 > 100 µM | SN12C > 100 µM

CNC(=O)C(NC(=O)[C@H](CC(C)C)NC(=O)[C@@H](S)CCN1C(=O)N(C)C(C)(C)C1=O)C(C)(C)C (stereo partly drawn)
inactive: PC-3 > 100 µM | CAKI-1 > 100 µM | DU-145 > 100 µM | A549 > 100 µM | OVCAR-4 > 100 µM | HOP-92 > 100 µM | UO-31 > 100 µM | NCI-H23 > 100 µM | OVCAR-5 > 100 µM | TK-10 > 100 µM | NCI-H460 > 100 µM | NCI-H522 > 100 µM | IGROV-1 > 100 µM | RXF 393 > 100 µM | MOLT-4 > 100 µM | MCF7 > 100 µM | HCC 2998 > 100 µM | SN12C > 100 µM

CC1CSC(=S)N1C(=O)N1C(=S)SCC1C (stereo not drawn)
inactive: PC-3 24.7 µM | CAKI-1 20.4 µM | DU-145 19.5 µM | A549 35.6 µM | CCRF-CEM 8.73 µM | HOP-92 27.7 µM | UO-31 22.8 µM | NCI-H23 20.3 µM | OVCAR-5 30.3 µM | OVCAR-3 27.4 µM | TK-10 27.8 µM | NCI-H460 24.1 µM | NCI-H522 11.5 µM | IGROV-1 18.5 µM | RXF 393 12.9 µM | MOLT-4 23.6 µM | MCF7 21.2 µM | HCC 2998 36.6 µM | SN12C 20.5 µM

CN(/N=C/c1ccc(Cl)c(Cl)c1)C1=NCCN1
inactive: PC-3 11.9 µM | CAKI-1 17.3 µM | DU-145 48.6 µM | A549 33.4 µM | CCRF-CEM 16.7 µM | OVCAR-4 41.2 µM | HOP-92 21.7 µM | NCI-H23 56 µM | OVCAR-5 > 100 µM | OVCAR-3 28.6 µM | TK-10 46.2 µM | NCI-H460 40.8 µM | NCI-H522 13.8 µM | IGROV-1 27.1 µM | MOLT-4 13.7 µM | MCF7 22.9 µM | HCC 2998 30.3 µM | SN12C 29.9 µM

CC(C)(O)/C=C\P(=O)(O)O
inactive: PC-3 > 100 µM | CAKI-1 > 100 µM | DU-145 > 100 µM | A549 > 100 µM | OVCAR-4 > 100 µM | HOP-92 > 100 µM | NCI-H23 > 100 µM | OVCAR-5 > 100 µM | OVCAR-3 > 100 µM | TK-10 > 100 µM | NCI-H460 > 100 µM | NCI-H522 > 100 µM | IGROV-1 > 100 µM | RXF 393 > 100 µM | MCF7 > 100 µM | HCC 2998 > 100 µM | SN12C > 100 µM

CN(C)CCn1nc(N)c2nc3cc(C(F)(F)F)ccc3nc21
inactive: PC-3 > 100 µM | CAKI-1 90.2 µM | DU-145 54.8 µM | A549 58.2 µM | CCRF-CEM 79.3 µM | OVCAR-4 > 100 µM | HOP-92 79.4 µM | UO-31 31.3 µM | NCI-H23 > 100 µM | OVCAR-5 > 100 µM | TK-10 > 100 µM | NCI-H460 51.4 µM | NCI-H522 42 µM | IGROV-1 41.5 µM | RXF 393 26.4 µM | MOLT-4 33.2 µM | MCF7 > 100 µM | HCC 2998 75.9 µM | SN12C > 100 µM

COc1cc(C(c2ccc3c(c2)OCO3)N2C(=O)CCC2C(=O)O)cc(OC)c1OC (stereo not drawn)
inactive: PC-3 > 100 µM | CAKI-1 > 100 µM | DU-145 > 100 µM | A549 > 100 µM | CCRF-CEM > 100 µM | OVCAR-4 > 100 µM | HOP-92 > 100 µM | UO-31 > 100 µM | NCI-H23 > 100 µM | OVCAR-5 > 100 µM | OVCAR-3 > 100 µM | TK-10 > 100 µM | NCI-H460 > 100 µM | NCI-H522 > 100 µM | IGROV-1 > 100 µM | MOLT-4 > 100 µM | MCF7 > 100 µM | HCC 2998 > 100 µM | SN12C > 100 µM

COc1ccc(/N=C2\C(=N/c3ccc(OC)cc3)N(S(=O)(=O)c3ccccc3)C(=S)N2c2ccc(OC)cc2)cc1
inactive: PC-3 > 100 µM | CAKI-1 > 100 µM | DU-145 > 100 µM | A549 > 100 µM | HOP-92 > 100 µM | UO-31 > 100 µM | NCI-H23 > 100 µM | OVCAR-5 > 100 µM | OVCAR-3 > 100 µM | TK-10 > 100 µM | NCI-H522 > 100 µM | IGROV-1 > 100 µM | RXF 393 46.2 µM | MOLT-4 > 100 µM | MCF7 > 100 µM | HCC 2998 > 100 µM | SN12C > 100 µM

Cn1c(S)nnc1CNc1ccc(-c2nnc(S)n2C)cc1
inactive: PC-3 > 100 µM | CAKI-1 > 100 µM | DU-145 > 100 µM | A549 > 100 µM | CCRF-CEM > 100 µM | OVCAR-4 > 100 µM | HOP-92 > 100 µM | UO-31 > 100 µM | NCI-H23 > 100 µM | OVCAR-5 > 100 µM | OVCAR-3 > 100 µM | TK-10 > 100 µM | NCI-H460 > 100 µM | NCI-H522 > 100 µM | IGROV-1 > 100 µM | MOLT-4 > 100 µM | MCF7 > 100 µM | HCC 2998 > 100 µM | SN12C > 100 µM

CC(=O)c1c2n(n(-c3ccccc3)c1=O)C(=O)c1nccnc1-2
inactive: PC-3 > 100 µM | CAKI-1 > 100 µM | DU-145 > 100 µM | A549 > 100 µM | OVCAR-4 > 100 µM | HOP-92 > 100 µM | UO-31 > 100 µM | NCI-H23 > 100 µM | OVCAR-5 > 100 µM | OVCAR-3 > 100 µM | NCI-H460 > 100 µM | NCI-H522 > 100 µM | IGROV-1 > 100 µM | RXF 393 > 100 µM | MOLT-4 > 100 µM | MCF7 > 100 µM | HCC 2998 > 100 µM | SN12C > 100 µM
